Consider four compounds from ChEMBL document CHEMBL1155021, “Spheciosterol sulfates, PKCzeta inhibitors from a philippine sponge Spheciospongia sp” (J Nat Prod, 2008).

SMILES strings stand for the structures. pIC50: −log10 of the molar value. Where a name gives a salt, the structure may show the parent alone.

This assay has as its target T1, Protein kinase C zeta type (Homo sapiens, UniProt Q05513).
T1 sequence (Q05513 whole entry): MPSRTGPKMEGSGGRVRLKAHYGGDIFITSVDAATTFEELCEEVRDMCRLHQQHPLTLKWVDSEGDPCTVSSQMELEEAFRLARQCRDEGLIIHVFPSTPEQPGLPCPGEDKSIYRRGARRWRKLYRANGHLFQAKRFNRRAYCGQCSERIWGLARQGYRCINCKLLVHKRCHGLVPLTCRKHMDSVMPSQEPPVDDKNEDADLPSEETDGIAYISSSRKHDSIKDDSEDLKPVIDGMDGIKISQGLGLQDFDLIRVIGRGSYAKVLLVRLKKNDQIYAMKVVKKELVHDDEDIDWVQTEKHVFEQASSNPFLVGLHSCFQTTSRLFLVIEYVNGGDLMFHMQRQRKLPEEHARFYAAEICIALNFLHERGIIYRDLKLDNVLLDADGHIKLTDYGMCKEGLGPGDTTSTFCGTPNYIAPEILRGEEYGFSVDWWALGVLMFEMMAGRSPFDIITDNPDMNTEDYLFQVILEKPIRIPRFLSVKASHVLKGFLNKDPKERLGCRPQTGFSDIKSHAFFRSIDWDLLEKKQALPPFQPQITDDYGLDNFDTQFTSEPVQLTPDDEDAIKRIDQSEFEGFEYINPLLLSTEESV
As to the kind of experiment: Inhibition of PKCzeta by TR-FRET based LanthaScreen assay. On the technique in general: In TR-FRET formats the signal depends on donor and acceptor labels being close together.

For `C=C(C)C(CC)CC[C@@H](C)[C@H]1CC[C@@]2(C)[C@@H]3C[C@H](OS(=O)(=O)O)[C@H]4[C@@H](O)[C@H](OS(=O)(=O)O)[C@@H](OS(=O)(=O)O)C[C@]4(C)C3=CC[C@]12C` (some centres undefined) [SPHECIOSTEROL SULFATE A], the negative logarithm of the IC50 (pIC50) (in general, −log10 of the IC50, conventionally taken in molar units) was 5.80.

Consider `C=C(C)C(CC[C@@H](C)[C@H]1CC[C@@]2(C)[C@@H]3C[C@H](OS(=O)(=O)O)[C@H]4[C@@H](O)[C@H](OS(=O)(=O)O)[C@@H](OS(=O)(=O)O)C[C@]4(C)C3=CC[C@]12C)C(C)C` (some centres undefined) [SPHECIOSTEROL SULFATE B], for which the pIC50 is 6.28.

As to `C=C(C)C(C)(C)C(C)CC[C@@H](C)[C@H]1CC[C@@]2(C)[C@@H]3C[C@H](OS(=O)(=O)O)[C@H]4[C@@H](O)[C@H](OS(=O)(=O)O)[C@@H](OS(=O)(=O)O)C[C@]4(C)C3=CC[C@]12C` (some centres undefined) [SPHECIOSTEROL SULFATE C], the pIC50 was 6.96.

`CC(C)C1(CC[C@@H](C)[C@H]2CC[C@@]3(C)[C@@H]4C[C@H](OS(=O)(=O)O)[C@H]5[C@@H](O)[C@H](OS(=O)(=O)O)[C@@H](OS(=O)(=O)O)C[C@]5(C)C4=CC[C@]23C)CC1C` (some centres undefined) [TOPSENTIASTEROL SULFATE E] gave a pIC50 of 5.92.
